Read-outs that look alike come from different tables or passages of the source.
Columns and labels:
[1] = tested on: TUS/R line 3 (MOLM-14); assay: Growth inhibition of TUS-resistant subline; format: cell-based, human; details: mean ± SEM (Supplementary Table 6)
[2] = tested on: MV-4-11 NRAS G12D Clone 4; assay: Growth inhibition of NRAS G12D clone; format: cell-based, human
Method: (§1) MV-4-11 cells expressing NRAS^G12D were prepared by transduction with a lentiviral vector encoding the NRAS^G12D mutation. Assays using a panel of parental Ba/F3 into which an additional copy of either WT or a mutant form of FLT3 was introduced were performed at Kyinno Biotechnology Co., Ltd. All cell lines were short tandem repeat authenticated at ATCC or at DSMZ when originally obtained, and no further authentication was done after receipt of the cells in the laboratory.
(§2) Assays using Ba/F3 cells expressing WT and mutant forms of FLT3 were performed by Kyinno Biotechnology. The cells were cultured in the medium recommended by the source for each cell line. Growth inhibition assays were performed using either Cell Titer 96 Aqueous One Solution Cell Proliferation assay (Promega, # G3581) or CCK8 (Dojindo, # CK-04). […] IC50 values were determined from growth inhibition curves fitted using GraphPad Prism and a nonlinear regression model with sigmoidal dose response. Unless otherwise indicated, data are presented as mean ± SEM.

[3] = tested on: MV-4-11 NRAS G12D Clone 15; assay: Growth inhibition of NRAS G12D clone; format: cell-based, human; details: MV-4-11 NRAS G12D, mean ± SEM
Method: as §1, §2

[4] = tested on: MV-4-11 NRAS G12D Clone 1; assay: Growth inhibition of NRAS G12D clone; format: cell-based, human; details: MV-4-11 NRAS G12D, mean ± SEM
Method: as §1, §2

[5] = tested on: MOLM-13 cells; assay: Growth inhibition of AML cell line; format: cell-based; details: Homo sapiens, mean ± SD
Method: as §1, §2

[6] = tested on: TUS/R line 4 (MOLM-14); assay: Growth inhibition of TUS-resistant subline; format: cell-based, human; details: mean ± SEM (Supplementary Table 6)
[7] = tested on: MOLM-14 cells (parental); assay: Growth inhibition of AML cell line; format: cell-based, human
Method: as §1, §2

[8] = tested on: MV-4-11 cells; assay: Growth inhibition of AML cell line; format: cell-based, human
Method: as §1, §2

[9] = tested on: TUS/R MOLM-14 cells; assay: Growth inhibition of TUS-resistant sublines versus parental; format: cell-based, human
[10] = Homo sapiens, MOLM-14, read-out: GI50 (nM) TUS/R line 3
[11] = Homo sapiens, MOLM-14, read-out: GI50 (nM) TUS/R line 4
[12] = Homo sapiens, MOLM-14, mean ± SEM (Supplementary Table 6), read-out: GI50 (nM) Parental MOLM-14 (converted)
[13] = Homo sapiens, MV4-11, mean ± SEM (Supplementary Table 7), read-out: GI50 (nM) Parental (MV-4-11)

| SMILES | GI50 [1, 10] [nM] | GI50 [6, 11] [nM] | GI50 [7, 12] [nM] | fold hypersensitive, TUS/R versus parental MOLM-14 [9] | further results |
| --- | --- | --- | --- | --- | --- |
| CC(C)(C)c1cc(NC(=O)Nc2ccc(-c3cn4c(n3)sc3cc(OCCN5CCOCC5)ccc34)cc2)no1 [Quizartinib, quizartinib] | 0.2 ± 0.1 | 0.5 ± 0.1 | 0.5 ± 0.02 |  | GI50 ([2]; Homo sapiens, MV4-11, read-out: GI50 (nM) Clone 4): 1.9 ± 0.5 nM; GI50 ([3]; Homo sapiens, MV4-11): 1.3 ± 0.4 nM; GI50 ([4]; Homo sapiens, MV4-11): 1.1 ± 0.2 nM; GI50 [5]: 0.9 ± 0.5 nM; GI50 ([7]; Homo sapiens, MOLM-14, mean ± SD (Supplementary Table 4), read-out: GI50): 0.6 ± 0.2 nM; GI50 ([8]; Homo sapiens, MV4-11, MV-4-11, mean ± SD (Supplementary Table 4), read-out: GI50): 0.2 ± 0.1 nM; GI50 [8, 13]: 0.5 ± 0.1 nM |
| Cc1c(-c2c(-c3ccc(F)o3)sc3ncnc(O[C@H](Cc4ccccc4OCc4ccnn4CC(F)(F)F)C(=O)O)c23)ccc(OCCN2CCN(C)CC2)c1Cl [S63845] |  |  |  | ~20 fold | GI50 ([1]; read-out: GI50 (nM) TUS/R line 3): 5.6 ± 0.7 nM; GI50 ([2]; MV-4-11 NRAS G12D, high expression, mean ± SEM, read-out: GI50 (nM) Clone 4): 7.3 ± 1.5 nM; GI50 [3]: 1.5 ± 0.1 nM; GI50 [4]: 1.1 ± 0.3 nM; GI50 ([6]; read-out: GI50 (nM) TUS/R line 4): 4.6 ± 0.3 nM; GI50 ([7]; mean ± SEM (Supplementary Table 6), read-out: GI50 (nM) Parental MOLM-14 (converted)): 105 ± 19.8 nM; GI50 ([8]; mean ± SEM (Supplementary Table 7), read-out: GI50 (nM) Parental (MV-4-11)): 4.6 ± 0.4 nM |
| Nc1ncn([C@@H]2O[C@H](CO)[C@@H](O)[C@H]2O)c(=O)n1 [5-Azacytidine, 5-azacytidine] | 1620 ± 294 | 1580 ± 145 | 2140 ± 231 |  |  |
| Cn1c(=O)n(-c2ccc(C(C)(C)C#N)cc2)c2c3cc(-c4cnc5ccccc5c4)ccc3ncc21 [Dactolisib, dactolisib] | 28.9 ± 2.7 | 26.8 ± 1.8 | 21.3 ± 1.4 | not more sensitive |  |
| N#CC[C@H](C1CCCC1)n1cc(-c2ncnc3[nH]ccc23)cn1 [Ruxolitinib, ruxolitinib] | ~1100 | ~1130 |  |  |  |
| Cc1c2c(nn1C)CSCc1cc(n(C)n1)CSc1cc(c3ccccc3c1)OCCCc1c(C(=O)O)n(C)c3c-2c(Cl)ccc13 [AZD5991] | 22.8 ± 2.7 | 18.2 ± 1.6 | 168 ± 33.7 | ~8 fold | GI50 ([2]; Homo sapiens, MV4-11, MV-4-11 NRAS G12D, high expression, mean ± SEM, read-out: GI50 (nM) Clone 4): 44.3 ± 8.3 nM; GI50 ([3]; Homo sapiens, MV4-11): 7.2 ± 0.4 nM; GI50 ([4]; Homo sapiens, MV4-11): 10.1 ± 3.2 nM; GI50 [8, 13]: 32.5 ± 5.4 nM |
| CC1(C)CCC(c2ccc(Cl)cc2)=C(CN2CCN(c3ccc(C(=O)NS(=O)(=O)c4ccc(N[C@H](CCN5CCOCC5)CSc5ccccc5)c(S(=O)(=O)C(F)(F)F)c4)cc3)CC2)C1 [Navitoclax, navitoclax] | 15.3 ± 2.4 | 15 ± 2.1 | 410 ± 50.2 | ~27 fold |  |

— article PMC11725774 (Cancer Research Communications, 2025)
